# ChEMBL document CHEMBL5726505, “Heteroaryl compounds as IRAK inhibitors and uses thereof” (2017)
# Target: T1, Interleukin-1 receptor-associated kinase 4 (Homo sapiens, UniProt Q9NWZ3)
# T1 sequence (Q9NWZ3 whole entry): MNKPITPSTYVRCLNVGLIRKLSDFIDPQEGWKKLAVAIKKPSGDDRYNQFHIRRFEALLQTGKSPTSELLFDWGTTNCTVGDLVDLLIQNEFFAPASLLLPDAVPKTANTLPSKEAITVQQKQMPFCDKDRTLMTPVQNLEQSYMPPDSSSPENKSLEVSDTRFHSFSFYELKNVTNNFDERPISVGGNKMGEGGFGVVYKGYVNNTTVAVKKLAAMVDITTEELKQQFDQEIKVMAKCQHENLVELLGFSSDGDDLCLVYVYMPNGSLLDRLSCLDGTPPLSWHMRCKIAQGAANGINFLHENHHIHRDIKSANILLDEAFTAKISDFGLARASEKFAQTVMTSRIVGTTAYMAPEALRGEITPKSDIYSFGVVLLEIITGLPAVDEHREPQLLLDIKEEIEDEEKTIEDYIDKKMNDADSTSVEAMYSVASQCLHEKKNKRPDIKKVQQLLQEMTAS
# Assay: Enzymatic Assay: IRAK4 is a human purified recombinant enzyme (His-TEV-[…] ([…]). IRAK4 hydrolyses ATP, autophosphorylates and phosphorylates a Serine/Threonine generic peptidic substrate (STK: 61ST1BLC from CisBio International based in Bagnols/Cèze FR).Measurement of IRAK-4 inhibition was performed in streptavidin coated 384well FlashPlate (PerkinElmer #SMP410A). His-TEV-IRAK4 (20 ng/well), ATP (2 μM, [33P]ATP 0.25 µCi/well), STK1-biotin peptide (300 nM) and compounds in DMSO (range of concentrations from 20 µM to 1 nM) or controls (2% DMSO) were incubated for 3 hours at 30° C. in assay buffer: Hepes pH7.0 50 mM, Fatty acid-free BSA 0.1%, Dithiothreitol DTT 2 mM, MgCl2 10 mM, EGTA 0.5 mM, Tween-20 0.01%, MnCl2 5 mM.
row,IC50,SMILES
1,< 0.1 µM,Cn1cc(-c2cccc(-c3ncc(-c4cnn(C)c4)c(N[C@H]4CCN(S(C)(=O)=O)C4)n3)c2)cn1
2,< 0.1 µM,Cn1cc(-c2cccc(-c3ncc(-c4ccn(C)n4)c(O[C@@H]4CCC[C@@H](N)[C@@H]4O)n3)c2)cn1
3,< 0.1 µM,Cc1nnc(-c2cnc(-c3cccc(-c4cnn(C)c4)c3)nc2NC2CCN(S(C)(=O)=O)CC2)s1
4,> 5 µM,Cn1cc(-c2cccc(-c3ncc(-c4cnn(C)c4)c(NCC4CCCN(C(=O)OC(C)(C)C)C4)n3)c2)cn1 (centres undefined)
